Three compounds from PubChem BioAssay AID588614 (The Scripps Research Institute Molecular Screening Center, 2011) can be followed below.

The source made the active and inactive calls.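 Rule for the calls: active = Level of the kinase MAPK1 protein lowered or raised by at least 30% versus solvent-only cells; inactive = change under 30% either way.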

In experiment [1] the test system is DLD-1 cells, ERK1/2 western blot, 24 h. The experiment can be described thus: total ERK1/2 protein level change, either direction, late-stage follow-up, counter-screen for KLF5 inhibitor project, DLD1 cells, chemiluminescent western blot, powder samples (AID 588614). Conditions: measured here: ERK1/2 band fold change vs DMSO; at 10 µM. (In general: A counterscreen serves to expose hits that act by an unwanted route or on another target.)

The target of experiment [2] is Mitogen-activated protein kinase 1 (Homo sapiens) (UniProt P28482). The description is as above. Conditions: DLD-1 cells, ERK1/2 western blot, 24 h; at 10 µM; stronger effect = higher value. (Immunoblotting shows a protein as a band on a membrane.)
Mitogen-activated protein kinase 1 (Homo sapiens), sequence (P28482 whole entry, looked up): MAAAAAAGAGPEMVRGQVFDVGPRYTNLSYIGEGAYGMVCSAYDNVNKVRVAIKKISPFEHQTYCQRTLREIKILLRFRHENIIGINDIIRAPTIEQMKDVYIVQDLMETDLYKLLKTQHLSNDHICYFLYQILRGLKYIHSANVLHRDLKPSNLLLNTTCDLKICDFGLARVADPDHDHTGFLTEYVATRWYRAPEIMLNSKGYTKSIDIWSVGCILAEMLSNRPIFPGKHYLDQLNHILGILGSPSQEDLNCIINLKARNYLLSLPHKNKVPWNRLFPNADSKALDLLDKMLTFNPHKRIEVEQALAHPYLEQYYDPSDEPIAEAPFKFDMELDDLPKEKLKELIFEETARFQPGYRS

`CN(C(=O)CNC(=O)/C=C/c1cccc(Cl)c1)C1CCS(=O)(=O)C1` (stereo unspecified): in experiment [1], the fold change is -1.26. Also, in experiment [2], the inhibition is 20.8% (inactive).

On to `CN(C(=O)COC(=O)/C=C/c1cccc([N+](=O)[O-])c1)C1CCS(=O)(=O)C1` (stereo unspecified), for which the fold change in experiment [1] was -1.25. For the same compound, the inhibition in experiment [2] was 19.8% (inactive).

On to `CN(C(=O)CNC(=O)/C=C/c1cccc(Cl)c1)C1CCS(=O)(=O)CC1`, for which the fold change in experiment [1] is -1.27. In addition, the inhibition in experiment [2] was 21.5% (inactive).

The inhibition is the drop in the measured response relative to a control, in per cent.
